Data as given in article PMC10742785, “Screening and Characterization of an α-Amylase Inhibitor from Carya cathayensis Sarg. Peel” (Foods, 2023).

Target: T1, α-amylase (hog pancreas) (Sus scrofa, UniProt P00690)
T1 construct: gene AMY2
T1 sequence (P00690 16-511): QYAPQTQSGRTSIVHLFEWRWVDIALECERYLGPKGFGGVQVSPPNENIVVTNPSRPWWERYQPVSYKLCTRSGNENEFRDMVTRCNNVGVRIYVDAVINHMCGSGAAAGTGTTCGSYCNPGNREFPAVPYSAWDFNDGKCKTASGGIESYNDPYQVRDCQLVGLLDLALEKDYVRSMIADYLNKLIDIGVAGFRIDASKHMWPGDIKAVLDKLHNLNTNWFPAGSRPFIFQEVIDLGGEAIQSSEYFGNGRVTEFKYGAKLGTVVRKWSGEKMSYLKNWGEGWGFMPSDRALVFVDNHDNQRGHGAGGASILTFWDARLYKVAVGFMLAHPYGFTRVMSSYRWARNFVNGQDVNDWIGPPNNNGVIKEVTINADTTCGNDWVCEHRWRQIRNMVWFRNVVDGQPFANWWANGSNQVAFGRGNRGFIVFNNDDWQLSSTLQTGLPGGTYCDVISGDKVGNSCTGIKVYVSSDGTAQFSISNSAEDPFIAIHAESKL
Assay: DNS starch hydrolysis assay with hog pancreas α-amylase; Lineweaver–Burk, Dixon and Eisenthal–Cornish-Bowden kinetics
Format: biochemical

IC50: 69.4 µM
Compound: O=C(/C=C/c1ccc(O)cc1)O[C@@H]1CC(O)(C(=O)O)C[C@@H](O)C1O (stereo partly shown) [5-CQA, 5-O-p-coumaroylquinic acid]
